Measurements from US11840686B2, “Modulation of prekallikrein (PKK) expression” (Ionis Pharmaceuticals, Inc., priority 2013, dated 2023).
Strand notation (5' to 3'): a small letter for the sugar, then the base; units joined by * are phosphorothioate-linked, units joined directly phosphodiester-linked; [ ] holds rarer units or linkages, { } end groups; capitals alone tell only the bases. e = 2'-O-(2-methoxyethyl) (MOE); [5mC] = 5-methylcytosine; d = 2'-deoxy (DNA)

Tested on: human PKK mRNA
Experiment: Antisense inhibition of human PKK mRNA in HepaRG cells, 3,000 nM (Example 1)
Assay type: cell-based
Details: Table 1; PKK mRNA, HepaRG cells, 3,000 nM, electroporation, ~24 h, relative to untreated control cells
How it was run: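 HepaRG cells, 20,000 per well, were electroporated with 3,000 nM 5-10-5 MOE gapmer (phosphorothioate, 5-methylcytosine). After about 24 h, PKK mRNA was measured by qRT-PCR with primer probe set RTS3454 and normalised to RIBOGREEN total RNA. Values are percent inhibition versus untreated cells.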

For “530998 (eA*eG*eT*eG*eA*dA*dA*dA*dA*d[5mC]*dT*dG*dA*d[5mC]*dA*eG*e[5mC]*eG*eA*eA; antisense) [compound 530998]”, which “% inhibition” value is on record?
Its value is 0%.

How did the “% inhibition” value turn out when “530948 (antisense eA*e[5mC]*eA*eT*eG*dG*dA*dA*dG*d[5mC]*dT*dA*d[5mC]*dA*dT*e[5mC]*e[5mC]*e[5mC]*e[5mC]*eA) [compound 530948]” was run?
Its value is 35%.

How did the “% inhibition” value turn out when “530958 (antisense eT*eT*eA*eA*eA*dA*dT*dT*dG*dA*d[5mC]*dT*d[5mC]*d[5mC]*dT*e[5mC]*eT*e[5mC]*eA*eT) [compound 530958]” was run?
Its value is 60%.

Which “% inhibition” value does the source give for “530984 (antisense eT*eT*eA*eG*eA*dA*dT*dG*dG*d[5mC]*dA*dG*dG*dG*dT*eT*e[5mC]*eA*eG*eG) [compound 530984]” here?
Its value is 25%.

Which “% inhibition” value does the source give for “530986 (e[5mC]*eG*eG*eG*eT*dA*dA*dA*dT*dT*dT*dT*dA*dG*dA*eA*eT*eG*eG*e[5mC]; antisense) [compound 530986]” here?
The value was 62%.

How did the “% inhibition” value turn out when “531006 (eG*e[5mC]*eT*eT*eG*dT*dT*dT*dT*dT*dG*dT*dT*dG*dT*eG*e[5mC]*eA*eG*eA; antisense) [compound 531006]” was run?
Its value is 49%.

“530976 (antisense eA*eT*eA*eT*eG*dG*dT*dG*dT*dT*dT*dT*d[5mC]*dT*dT*eG*eA*eG*eG*eA) [compound 530976]” was tested. Which “% inhibition” value did it give?
Its value is 26%.

For “530931 (antisense e[5mC]*eT*eT*eA*eA*dA*dA*dA*dT*dG*dA*dA*d[5mC]*dG*dG*eT*e[5mC]*eT*eT*e[5mC]) [compound 530931]”, which “% inhibition” value is on record?
The value was 29%.

“530978 (antisense e[5mC]*eT*eA*eT*eA*dT*d[5mC]*d[5mC]*dA*dG*dA*dT*dA*dT*dG*eG*eT*eG*eT*eT) [compound 530978]” was tested. Which “% inhibition” value did it give?
The value was 0%.

How did the “% inhibition” value turn out when “530940 (antisense eT*eA*eG*e[5mC]*eA*dA*dA*d[5mC]*dA*dA*dG*dG*dA*dA*dA*eT*eG*eA*eA*eA) [compound 530940]” was run?
Its value is 7%.

“530972 (antisense eG*eT*eA*eG*eA*dG*dG*dA*dA*d[5mC]*dT*dT*dG*dG*dT*eG*eT*eG*e[5mC]*e[5mC]) [compound 530972]” was tested. Which “% inhibition” value did it give?
Its value is 42%.

Same assay, conditions: Table 2; PKK mRNA, HepaRG cells, 3,000 nM, electroporation, ~24 h, relative to untreated control cells

Which “% inhibition” value does the source give for “531062 (antisense e[5mC]*eA*eG*eG*eT*dT*dG*d[5mC]*dT*d[5mC]*d[5mC]*d[5mC]*dT*dG*d[5mC]*eG*eG*eG*e[5mC]*eA) [compound 531062]” here?
Its value is 39%.

For “531048 (antisense eT*eT*eA*eT*eA*dA*dT*d[5mC]*dT*dT*dG*dA*dT*dA*dT*e[5mC]*eT*eT*eT*eT) [compound 531048]”, which “% inhibition” value is on record?
The value was 42%.

Which “% inhibition” value does the source give for “531040 (antisense eT*e[5mC]*e[5mC]*eT*eT*d[5mC]*dG*dA*dG*dA*dA*dG*d[5mC]*d[5mC]*d[5mC]*e[5mC]*eA*eT*e[5mC]*e[5mC]) [compound 531040]” here?
The value was 27%.

“531019 (eG*eT*eG*eA*eG*dG*dA*d[5mC]*d[5mC]*d[5mC]*dA*d[5mC]*dT*dG*dG*eT*eG*eT*e[5mC]*e[5mC]; antisense) [compound 531019]” was tested. Which “% inhibition” value did it give?
Its value is 28%.

“482586 (antisense eA*e[5mC]*e[5mC]*e[5mC]*eA*dA*d[5mC]*dA*dG*dT*dT*dG*dG*dT*dA*eT*eA*eA*eA*eT) [compound 482586]” was tested. Which “% inhibition” value did it give?
The value was 0%.

How did the “% inhibition” value turn out when “531032 (antisense eT*eG*eG*eT*eT*dT*dT*dT*dG*dG*dA*dA*dT*dT*d[5mC]*eA*eG*eT*eG*eT) [compound 531032]” was run?
Its value is 67%.

“531011 (e[5mC]*e[5mC]*eA*eA*eG*dA*dA*dG*dA*dG*dT*dT*dT*dG*dT*eT*e[5mC]*e[5mC]*eT*e[5mC]; antisense) [compound 531011]” was tested. Which “% inhibition” value did it give?
Its value is 0%.

With “531013 (e[5mC]*e[5mC]*eA*eG*eG*dG*d[5mC]*d[5mC]*dA*d[5mC]*dT*d[5mC]*dT*d[5mC]*d[5mC]*e[5mC]*e[5mC]*eA*eA*eG; antisense) [compound 531013]” as the substance, how does the “% inhibition” value read?
Its value is 56%.

How did the “% inhibition” value turn out when “531053 (antisense eA*eG*e[5mC]*eA*e[5mC]*dA*dG*dA*d[5mC]*d[5mC]*dA*dT*d[5mC]*d[5mC]*dG*eT*eT*eG*eG*eG) [compound 531053]” was run?
Its value is 49%.

With “531031 (antisense eT*eT*eT*eG*eG*dA*dA*dT*dT*d[5mC]*dA*dG*dT*dG*dT*eA*eA*eT*eT*e[5mC]) [compound 531031]” as the substance, how does the “% inhibition” value read?
Its value is 59%.

Same assay, conditions: Table 3; HepaRG cells, electroporation with 3,000 nM antisense oligonucleotide, approx. 24 hours; PKK mRNA by RT-PCR (RTS3454), relative to untreated control cells

With “531117 (antisense eA*e[5mC]*e[5mC]*e[5mC]*eA*dA*dT*dT*dA*dT*dT*dT*dT*dT*dA*eA*eT*eG*eG*e[5mC]) [compound 531117]” as the substance, how does the “% inhibition” value read?
The value was 62%.

How did the “% inhibition” value turn out when “531138 (antisense eT*eT*eT*eA*eA*dA*dT*dG*dT*dG*dT*d[5mC]*dA*d[5mC]*dT*eT*eA*eA*eT*e[5mC]) [compound 531138]” was run?
Its value is 0%.

“531100 (e[5mC]*e[5mC]*e[5mC]*e[5mC]*e[5mC]*dT*d[5mC]*d[5mC]*d[5mC]*dT*dT*d[5mC]*d[5mC]*d[5mC]*dT*eA*e[5mC]*eA*e[5mC]*eA; antisense) [compound 531100]” was tested. Which “% inhibition” value did it give?
Its value is 0%.

“531157 (antisense eA*eA*eG*eT*eG*dA*dA*dT*d[5mC]*dA*dG*dA*dG*d[5mC]*dA*eG*eT*eG*eT*eA) [compound 531157]” was tested. Which “% inhibition” value did it give?
Its value is 46%.

“531093 (eT*eT*e[5mC]*eT*e[5mC]*d[5mC]*dT*dG*dG*d[5mC]*dT*d[5mC]*dA*dG*dA*eA*eG*e[5mC]*eT*e[5mC]; antisense) [compound 531093]” was tested. Which “% inhibition” value did it give?
The value was 60%.

How did the “% inhibition” value turn out when “531103 (eA*e[5mC]*eT*e[5mC]*eA*dT*dT*dG*d[5mC]*d[5mC]*dT*dT*dA*dA*d[5mC]*eT*e[5mC]*eA*eG*eG; antisense) [compound 531103]” was run?
The value was 40%.

How did the “% inhibition” value turn out when “531106 (antisense eA*eA*eG*eA*eT*d[5mC]*dT*dA*dG*dA*dT*dA*dA*dT*dT*e[5mC]*eT*eT*eG*eT) [compound 531106]” was run?
The value was 31%.

“531122 (antisense eT*eA*eA*e[5mC]*eA*dA*dA*dA*dA*dT*dG*d[5mC]*d[5mC]*dT*dT*eG*eT*eG*e[5mC]*e[5mC]) [compound 531122]” was tested. Which “% inhibition” value did it give?
Its value is 33%.

With “531098 (eT*eT*eA*eT*eT*dA*dG*dT*d[5mC]*dA*dA*dA*dT*d[5mC]*dA*e[5mC]*e[5mC]*e[5mC]*eA*eA; antisense) [compound 531098]” as the substance, how does the “% inhibition” value read?
Its value is 19%.

For “531119 (antisense eT*eA*eA*eA*e[5mC]*dT*d[5mC]*dT*dT*dA*d[5mC]*dA*dT*dT*dT*eA*eT*eA*eG*eA) [compound 531119]”, which “% inhibition” value is on record?
The value was 0%.

Which “% inhibition” value does the source give for “531102 (eT*eG*e[5mC]*e[5mC]*eT*d[5mC]*dT*dT*dT*dA*dA*dT*dA*dA*dA*eA*eA*e[5mC]*eT*e[5mC]; antisense) [compound 531102]” here?
Its value is 42%.

For “531091 (eT*e[5mC]*eA*eG*e[5mC]*d[5mC]*d[5mC]*dA*dA*dT*dG*dT*d[5mC]*d[5mC]*dT*eA*eA*e[5mC]*e[5mC]*eT; antisense) [compound 531091]”, which “% inhibition” value is on record?
The value was 35%.

How did the “% inhibition” value turn out when “531129 (antisense eA*eG*e[5mC]*eA*eG*d[5mC]*dT*d[5mC]*dA*d[5mC]*dA*d[5mC]*d[5mC]*d[5mC]*dA*eA*eA*eA*eA*eG) [compound 531129]” was run?
Its value is 0%.

With “531084 (eA*eT*eA*eG*eG*dG*dA*d[5mC]*dA*d[5mC]*dA*dA*d[5mC]*d[5mC]*dA*eA*eG*eG*eA*eA; antisense) [compound 531084]” as the substance, how does the “% inhibition” value read?
Its value is 25%.

With “531137 (antisense eT*eG*eT*e[5mC]*eT*dA*d[5mC]*dT*dA*dT*dT*dT*dG*dA*d[5mC]*e[5mC]*eA*eA*eT*eA) [compound 531137]” as the substance, how does the “% inhibition” value read?
Its value is 19%.

With “531107 (antisense eT*e[5mC]*eA*eA*e[5mC]*dT*d[5mC]*dA*d[5mC]*dA*d[5mC]*d[5mC]*dT*dG*dA*e[5mC]*e[5mC]*eT*eA*eA) [compound 531107]” as the substance, how does the “% inhibition” value read?
The value was 30%.

Same assay, conditions: Table 4; HepaRG cells, electroporation with 3,000 nM antisense oligonucleotide, approx. 24 hours; PKK mRNA by RT-PCR (RTS3454), relative to untreated control cells

Which “% inhibition” value does the source give for “531227 (eT*eA*e[5mC]*e[5mC]*eA*dA*dT*dT*dT*d[5mC]*dT*dG*dA*dA*dA*eG*eG*eG*e[5mC]*eA; antisense) [compound 531227]” here?
The value was 72%.

How did the “% inhibition” value turn out when “531197 (eT*eA*e[5mC]*e[5mC]*eT*dT*dT*dT*d[5mC]*dT*d[5mC]*d[5mC]*dA*dT*dG*eT*e[5mC]*eA*eT*eT; antisense) [compound 531197]” was run?
Its value is 42%.

With “531171 (antisense eA*eG*eG*e[5mC]*e[5mC]*dT*dG*d[5mC]*d[5mC]*dA*d[5mC]*dA*dG*dG*d[5mC]*e[5mC]*eA*eG*eA*e[5mC]) [compound 531171]” as the substance, how does the “% inhibition” value read?
Its value is 40%.

“531200 (e[5mC]*eA*eA*eA*eA*dT*d[5mC]*dA*d[5mC]*dA*dA*dG*dT*dT*d[5mC]*eT*eA*eG*eA*eT; antisense) [compound 531200]” was tested. Which “% inhibition” value did it give?
Its value is 51%.

“531173 (antisense eA*eA*eA*eA*eT*dA*dA*d[5mC]*dT*dT*d[5mC]*dA*d[5mC]*dT*dA*eG*eA*eG*e[5mC]*eT) [compound 531173]” was tested. Which “% inhibition” value did it give?
The value was 22%.

“531163 (antisense eT*e[5mC]*eA*eG*e[5mC]*dA*dG*dA*dA*dA*dT*d[5mC]*dA*dT*dG*eT*eA*eG*eG*e[5mC]) [compound 531163]” was tested. Which “% inhibition” value did it give?
The value was 60%.

Which “% inhibition” value does the source give for “531183 (antisense e[5mC]*eA*eT*eA*eA*dG*dA*dA*dT*dG*dT*dG*d[5mC]*dA*d[5mC]*eA*e[5mC]*eA*eA*eA) [compound 531183]” here?
The value was 39%.

How did the “% inhibition” value turn out when “531169 (antisense eT*eG*eG*eG*e[5mC]*dT*d[5mC]*dA*d[5mC]*d[5mC]*d[5mC]*d[5mC]*dA*dG*dT*eG*eG*eA*e[5mC]*e[5mC]) [compound 531169]” was run?
Its value is 54%.

“531203 (eT*eG*eA*e[5mC]*eT*dA*dT*d[5mC]*d[5mC]*dA*dA*dT*dT*dT*d[5mC]*eT*eA*eG*eT*eT; antisense) [compound 531203]” was tested. Which “% inhibition” value did it give?
The value was 67%.

Which “% inhibition” value does the source give for “531208 (eT*e[5mC]*e[5mC]*eA*eG*dA*dA*dT*dA*d[5mC]*dT*dG*d[5mC]*d[5mC]*d[5mC]*e[5mC]*eA*eT*e[5mC]*eT; antisense) [compound 531208]” here?
The value was 23%.
